# Measured values taken from patent US20070202486A1, “Method Of Assaying Substance Capable Of Changing Mitochondrial Membrane Potential” (Mitsubishi Pharma Corporation, priority 2004, published 2007).
# What was measured:
# Girardi cells = experiment: Mitochondrial depolarization inhibition, JC-1 fluorescence ratio, ouabain/KCl-induced depolarization (Example 1); format: cell-based, human; conditions: 1 mM ouabain + 60 mM KCl, 2 hr
# Procedure: First of all, Girardi cells are seeded on a plate usable for an optical measurement method, and cultured in a normal medium (MEM medium supplemented with additives, such as non-essential amino acid, fetal bovine serum and the like). Then, the medium is changed to a normal medium containing JC-1 to allow incorporation of JC-1 into the cell, the medium is changed to a normal medium containing a test substance, and the cells are cultured. Then, a depolarization-inducing medium is used (normal medium containing ouabain and KCl; in the evaluation method of the present invention, ouabain is used at a concentration of 0.1 μM-3 mM, and KCl is used at a concentration of 20 mM-90 mM). The test substance may be added along with or after addition of a depolarization-inducing medium following incorporation of JC-1 into the cell. After addition of the depolarization-inducing medium, the culture time can be 1-24 hr. Thereafter, the fluorescence of JC-1 monomer and the fluorescence of J-aggregate are measured on a fluorescence plate reader (capable of excitation at around 488-490 nm, which is the excitation wavelength of JC-1, and capable of fluorescence detection around 527 nm, which is the fluorescence wavelength peak of JC-1 monomer and around 590-600 nm, which is the fluorescence wavelength of J-aggregate), and the fluorescence intensity ratio (monomer fluorescence intensity/J-aggregate fluorescence intensity) is calculated.
# Girardi cells suspended in a normal medium [(MEM (GIBCO 11095-098) supplemented with 1% non-essential amino acid (MEM Non-Essential Amino Acids Solution 10 mM 100× GIBCO 11140-050), and 10% fetal bovine serum (BIOFLUIDS DIVISION Lot No. 302030))] were seeded to a 96-well clear bottom black plate (MATRIX MT4940) at 200 μL/well and cultured.
# JC-1 (Molecular Probes T-3168, 1 mg/mL DMSO solution) was added to a phenol red-free normal medium [MEM (GIBCO 51200-038) supplemented with 1% non-essential amino acid (MEM Non-Essential Amino Acids Solution 10 mM 100× GIBCO 11140-050), 1% L-glutamine (L-Glutamine-200 mM 100×: GIBCO 25030-149) and 10% fetal bovine serum (BIOFLUIDS DIVISION: Lot No. 302030)] at 10 μL/mL, the mixture was stirred with a vortex mixer and centrifuged at 3000 rpm for 1 min and the supernatant was filtered through a syringe filter (0.22 μm, MILLIPORE). The medium in the 96-well plate was removed and the JC-1 solution was dispensed to a cell-seeded well at 50 μL/well. […]
# After induction of depolarization, the plate was set on a fluorescence plate reader (TECAN, SpectraFluor) heated to 37° C., and the J-aggregate fluorescence was measured at 595 nm using an excitation wavelength of 485 nm. Then, the monomer fluorescence was measured at 535 nm using an excitation wavelength of 485 nm. […]
# Griardi cells [1] = conditions: 3 hr low oxygen with metabolism inhibitor, then 1 hr normal medium; cited from earlier work
# Griardi cells [2] = conditions: JC-1, flow cytometry; cited from earlier work
Structure (SMILES),mitochondrial depolarization inhibitory action (fluorescence intensity ratio monomer/J-aggregate) (Girardi cells),other results
CC1(C)Oc2ccc(C#N)cc2[C@@H](N2CCCC2=O)[C@@H]1O [levcromakalim],did not prevent mitochondrial depolarization,–
Nc1ncnc2c1ncn2[C@@H]1O[C@H](CO)[C@@H](O)[C@H]1O [adenosine],–,apoptosis (Griardi cells [1]): strongly inhibited apoptosis
CC1=NS(=O)(=O)c2cc(Cl)ccc2N1 [diazoxide],mitochondrial depolarization inhibitory action,–
"COc1ccc([C@@H]2Sc3ccccc3N(CCN(C)C)C(=O)[C@@H]2OC(C)=O)cc1.Cl [diltiazem, diltiazem hydrochloride]",did not prevent mitochondrial depolarization,–
N#CC(C#N)=NNc1cccc(Cl)c1 [CCCP],–,mitochondrial membrane potential (red fluorescence intensity of JC-1) (Griardi cells [2]): decreased fluorescence intensity and depolarization of mitochondria were observed
CC1(C)Oc2ccc(C#N)cc2[C@H](N(Cc2ncc[nH]2)c2ccc(Cl)cc2)[C@H]1O [BMS-191095],mitochondrial depolarization inhibitory action,–
